# Columns and labels:
# Experiment in all cases: KINOMEscan competition binding
# Settings in all cases: compound 0.5 µM
# [1] = system: PIK3CA (human), P42336 [E545A]
# CSNK1A1L (human) = CSNK1A1L (human) (UniProt Q8N752)
# DCLK3 (human) = DCLK3 (human) (UniProt Q9C098)
# IKBKB (human) = IKBKB (human) (UniProt O14920)
# CDK14 (human) = CDK14 (human) (UniProt O94921)
# [2] = system: ABL1 (human), P00519 [Y253F]
# SGK110 (human) = SGK110 (human) (UniProt P0C264)
# [3] = system: PIK3CA (human), P42336 [C420R]
# PIP5K1C (human) = PIP5K1C (human) (UniProt O60331)
# AAK1 (human) = AAK1 (human) (UniProt Q2M2I8)
# DMPK (human) = DMPK (human) (UniProt Q09013)
# RPS6KA4 KD2 (human) = RPS6KA4 KD2 (human) (UniProt O75676)
# YSK4 (human) = YSK4 (human) (UniProt Q56UN5)
# [4] = target: JAK1 JH1 catalytic (human) (UniProt P23458)
# STK4 (human) = STK4 (human) (UniProt Q13043)
# EIF2AK2 (human) = EIF2AK2 (human) (UniProt P19525)
# MAPK10 (human) = MAPK10 (human) (UniProt P53779)
# CSNK1G3 (human) = CSNK1G3 (human) (UniProt Q9Y6M4)
# MAP3K2 (human) = MAP3K2 (human) (UniProt Q9Y2U5)
# [5] = system: KIT (human), P10721 [V559D]
# [6] = system: FLT3 (human), P36888 [D835H]
# HIPK1 (human) = HIPK1 (human) (UniProt Q86Z02)
# MKNK1 (human) = MKNK1 (human) (UniProt Q9BUB5)
# [7] = system: KIT (human), P10721 [A829P]
# TLK2 (human) = TLK2 (human) (UniProt Q86UE8)
# MELK (human) = MELK (human) (UniProt Q14680)
# [8] = system: PIK3CA (human), P42336 [H1047L]
# NEK1 (human) = NEK1 (human) (UniProt Q96PY6)
# RPS6KA6 KD1 (human) = RPS6KA6 KD1 (human) (UniProt Q9UK32)
# PRKACB (human) = PRKACB (human) (UniProt P22694)
# TIE1 (human) = TIE1 (human) (UniProt P35590)
# TNNI3K (human) = TNNI3K (human) (UniProt Q59H18)
# CDC42BPG (human) = CDC42BPG (human) (UniProt Q6DT37)
# ACVRL1 (human) = ACVRL1 (human) (UniProt P37023)
# TAOK2 (human) = TAOK2 (human) (UniProt Q9UL54)
# PIM1 (human) = PIM1 (human) (UniProt P11309)
# SYK (human) = SYK (human) (UniProt P43405)
# CHEK2 (human) = CHEK2 (human) (UniProt O96017)
# CHUK (human) = CHUK (human) (UniProt O15111)
# MAP2K4 (human) = MAP2K4 (human) (UniProt P45985)
# PRKG1 (human) = PRKG1 (human) (UniProt Q13976)
# Chain of PRKG1 (human) (Q13976 whole entry, looked up): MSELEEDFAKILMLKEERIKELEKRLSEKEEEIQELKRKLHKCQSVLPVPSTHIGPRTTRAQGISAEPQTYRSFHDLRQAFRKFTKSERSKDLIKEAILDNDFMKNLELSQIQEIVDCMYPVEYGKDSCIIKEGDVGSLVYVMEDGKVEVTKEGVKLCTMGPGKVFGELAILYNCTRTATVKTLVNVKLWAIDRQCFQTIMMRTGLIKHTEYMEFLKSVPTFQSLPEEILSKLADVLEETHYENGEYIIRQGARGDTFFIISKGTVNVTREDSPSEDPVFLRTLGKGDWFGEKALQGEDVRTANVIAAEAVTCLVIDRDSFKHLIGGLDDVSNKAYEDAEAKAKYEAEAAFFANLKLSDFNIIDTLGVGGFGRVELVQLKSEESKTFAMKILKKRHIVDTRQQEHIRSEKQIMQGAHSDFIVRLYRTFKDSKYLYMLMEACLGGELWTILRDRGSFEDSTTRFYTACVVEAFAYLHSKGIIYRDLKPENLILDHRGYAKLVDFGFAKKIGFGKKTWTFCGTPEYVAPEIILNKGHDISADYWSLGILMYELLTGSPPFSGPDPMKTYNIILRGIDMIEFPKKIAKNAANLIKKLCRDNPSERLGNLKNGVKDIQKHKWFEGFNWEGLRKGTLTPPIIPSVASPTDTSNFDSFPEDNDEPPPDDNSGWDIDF
# Chain of SGK110 (human) (P0C264 whole entry, looked up): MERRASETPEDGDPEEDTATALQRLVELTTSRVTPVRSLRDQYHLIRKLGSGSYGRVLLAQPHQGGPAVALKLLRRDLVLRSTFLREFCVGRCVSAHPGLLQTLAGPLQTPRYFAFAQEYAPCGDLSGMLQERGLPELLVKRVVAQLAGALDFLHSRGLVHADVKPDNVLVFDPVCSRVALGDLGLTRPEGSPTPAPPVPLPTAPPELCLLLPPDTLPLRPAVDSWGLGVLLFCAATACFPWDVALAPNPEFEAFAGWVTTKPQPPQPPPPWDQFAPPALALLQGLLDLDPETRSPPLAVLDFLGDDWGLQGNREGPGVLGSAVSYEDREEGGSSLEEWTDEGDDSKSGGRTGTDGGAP
# Chain of TAOK2 (human) (Q9UL54 whole entry, looked up): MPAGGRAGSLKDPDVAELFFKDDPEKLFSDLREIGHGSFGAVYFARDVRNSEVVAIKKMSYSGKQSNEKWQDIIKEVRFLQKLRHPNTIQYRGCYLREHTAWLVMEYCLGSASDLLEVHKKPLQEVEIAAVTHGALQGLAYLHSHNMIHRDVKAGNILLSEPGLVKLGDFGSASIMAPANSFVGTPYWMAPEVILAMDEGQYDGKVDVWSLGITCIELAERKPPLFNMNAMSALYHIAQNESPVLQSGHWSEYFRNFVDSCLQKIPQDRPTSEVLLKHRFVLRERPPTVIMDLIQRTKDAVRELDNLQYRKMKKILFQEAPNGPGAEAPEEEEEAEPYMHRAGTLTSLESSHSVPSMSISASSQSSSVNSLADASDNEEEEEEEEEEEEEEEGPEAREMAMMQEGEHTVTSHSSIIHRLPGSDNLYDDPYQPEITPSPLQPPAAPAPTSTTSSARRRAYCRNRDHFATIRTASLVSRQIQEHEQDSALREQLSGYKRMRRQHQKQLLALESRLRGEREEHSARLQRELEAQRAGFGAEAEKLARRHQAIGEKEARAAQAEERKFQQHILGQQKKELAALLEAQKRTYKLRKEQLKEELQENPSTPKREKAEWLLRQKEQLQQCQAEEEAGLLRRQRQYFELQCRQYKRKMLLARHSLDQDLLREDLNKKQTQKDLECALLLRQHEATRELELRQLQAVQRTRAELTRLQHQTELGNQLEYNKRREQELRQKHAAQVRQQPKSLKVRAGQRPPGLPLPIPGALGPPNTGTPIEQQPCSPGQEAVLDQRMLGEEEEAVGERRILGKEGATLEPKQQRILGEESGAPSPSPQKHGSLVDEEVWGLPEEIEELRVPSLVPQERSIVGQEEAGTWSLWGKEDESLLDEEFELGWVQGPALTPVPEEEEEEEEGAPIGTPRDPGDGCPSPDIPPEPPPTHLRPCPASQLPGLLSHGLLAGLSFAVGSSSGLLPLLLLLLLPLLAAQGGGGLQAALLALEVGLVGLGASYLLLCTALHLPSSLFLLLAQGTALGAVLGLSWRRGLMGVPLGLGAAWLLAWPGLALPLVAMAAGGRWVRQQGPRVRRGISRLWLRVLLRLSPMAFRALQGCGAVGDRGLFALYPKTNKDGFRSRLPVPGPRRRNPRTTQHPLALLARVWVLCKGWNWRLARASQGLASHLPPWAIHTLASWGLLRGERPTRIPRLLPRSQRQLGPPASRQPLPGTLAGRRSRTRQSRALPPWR
# Chain of EIF2AK2 (human) (P19525 whole entry, looked up): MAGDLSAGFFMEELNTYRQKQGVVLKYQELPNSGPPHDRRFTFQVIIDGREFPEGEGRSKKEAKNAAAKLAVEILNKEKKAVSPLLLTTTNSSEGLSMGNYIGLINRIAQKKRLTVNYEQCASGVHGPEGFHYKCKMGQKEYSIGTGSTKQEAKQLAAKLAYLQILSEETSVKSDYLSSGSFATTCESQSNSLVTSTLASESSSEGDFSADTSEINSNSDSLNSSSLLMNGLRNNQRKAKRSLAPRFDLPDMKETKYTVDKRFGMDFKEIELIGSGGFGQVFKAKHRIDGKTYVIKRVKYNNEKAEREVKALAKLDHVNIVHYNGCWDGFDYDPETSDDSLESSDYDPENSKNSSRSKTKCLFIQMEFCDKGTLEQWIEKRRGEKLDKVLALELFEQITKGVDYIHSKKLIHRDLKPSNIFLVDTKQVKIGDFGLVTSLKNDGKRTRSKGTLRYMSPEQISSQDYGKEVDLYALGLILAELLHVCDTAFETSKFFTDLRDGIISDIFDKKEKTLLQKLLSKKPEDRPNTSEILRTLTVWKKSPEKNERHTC
# Chain of JAK1 JH1 catalytic (human) (P23458 whole entry, looked up): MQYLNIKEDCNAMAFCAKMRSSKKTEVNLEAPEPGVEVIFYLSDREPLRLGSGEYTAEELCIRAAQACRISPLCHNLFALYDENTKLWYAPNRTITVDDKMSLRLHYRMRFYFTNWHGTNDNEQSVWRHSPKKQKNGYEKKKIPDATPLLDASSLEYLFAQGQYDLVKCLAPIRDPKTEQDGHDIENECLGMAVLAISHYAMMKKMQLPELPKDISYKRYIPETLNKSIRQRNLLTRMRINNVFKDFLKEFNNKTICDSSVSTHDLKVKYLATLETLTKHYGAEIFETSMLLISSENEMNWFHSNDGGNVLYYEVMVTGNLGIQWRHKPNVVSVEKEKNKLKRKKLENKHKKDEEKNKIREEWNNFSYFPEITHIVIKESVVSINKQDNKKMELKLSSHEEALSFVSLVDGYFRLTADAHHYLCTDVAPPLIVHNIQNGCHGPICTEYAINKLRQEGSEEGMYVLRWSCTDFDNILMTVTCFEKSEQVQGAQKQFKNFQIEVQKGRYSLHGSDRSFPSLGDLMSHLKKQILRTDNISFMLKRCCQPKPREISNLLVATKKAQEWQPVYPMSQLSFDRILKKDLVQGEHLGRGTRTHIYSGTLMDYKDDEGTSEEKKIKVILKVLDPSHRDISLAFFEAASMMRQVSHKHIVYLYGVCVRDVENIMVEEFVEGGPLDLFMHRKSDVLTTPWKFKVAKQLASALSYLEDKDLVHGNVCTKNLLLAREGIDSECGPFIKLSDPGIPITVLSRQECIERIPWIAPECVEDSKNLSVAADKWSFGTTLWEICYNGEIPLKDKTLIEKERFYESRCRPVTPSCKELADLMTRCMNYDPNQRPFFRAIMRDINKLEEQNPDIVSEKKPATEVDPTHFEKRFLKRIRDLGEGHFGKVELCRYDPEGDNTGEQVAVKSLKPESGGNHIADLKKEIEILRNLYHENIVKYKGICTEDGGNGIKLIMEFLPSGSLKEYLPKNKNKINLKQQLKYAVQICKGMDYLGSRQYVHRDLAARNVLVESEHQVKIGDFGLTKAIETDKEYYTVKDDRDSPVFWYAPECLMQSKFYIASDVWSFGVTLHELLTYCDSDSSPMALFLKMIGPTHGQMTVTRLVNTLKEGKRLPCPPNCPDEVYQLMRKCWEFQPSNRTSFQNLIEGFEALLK
# Chain of TLK2 (human) (Q86UE8 whole entry, looked up): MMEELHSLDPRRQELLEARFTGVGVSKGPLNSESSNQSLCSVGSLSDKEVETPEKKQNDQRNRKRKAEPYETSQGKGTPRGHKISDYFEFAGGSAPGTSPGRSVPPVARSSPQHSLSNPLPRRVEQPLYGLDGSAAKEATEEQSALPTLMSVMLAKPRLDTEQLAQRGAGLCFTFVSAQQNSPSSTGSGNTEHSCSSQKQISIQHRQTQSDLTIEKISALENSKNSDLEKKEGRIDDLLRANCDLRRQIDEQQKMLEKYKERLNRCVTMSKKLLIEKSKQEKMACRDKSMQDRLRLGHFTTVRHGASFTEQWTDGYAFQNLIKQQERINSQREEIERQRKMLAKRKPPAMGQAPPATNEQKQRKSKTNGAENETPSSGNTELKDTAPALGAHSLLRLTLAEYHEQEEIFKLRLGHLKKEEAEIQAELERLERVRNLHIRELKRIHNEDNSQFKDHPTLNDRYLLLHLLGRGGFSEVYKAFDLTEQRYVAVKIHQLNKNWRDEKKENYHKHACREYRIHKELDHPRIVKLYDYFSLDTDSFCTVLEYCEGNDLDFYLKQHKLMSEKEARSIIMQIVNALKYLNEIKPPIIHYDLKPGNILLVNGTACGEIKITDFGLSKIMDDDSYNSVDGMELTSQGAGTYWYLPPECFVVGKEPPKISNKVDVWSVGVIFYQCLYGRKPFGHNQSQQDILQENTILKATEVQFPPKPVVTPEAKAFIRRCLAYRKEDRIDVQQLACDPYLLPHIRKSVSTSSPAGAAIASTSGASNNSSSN
# Chain of PIM1 (human) (P11309 whole entry, looked up): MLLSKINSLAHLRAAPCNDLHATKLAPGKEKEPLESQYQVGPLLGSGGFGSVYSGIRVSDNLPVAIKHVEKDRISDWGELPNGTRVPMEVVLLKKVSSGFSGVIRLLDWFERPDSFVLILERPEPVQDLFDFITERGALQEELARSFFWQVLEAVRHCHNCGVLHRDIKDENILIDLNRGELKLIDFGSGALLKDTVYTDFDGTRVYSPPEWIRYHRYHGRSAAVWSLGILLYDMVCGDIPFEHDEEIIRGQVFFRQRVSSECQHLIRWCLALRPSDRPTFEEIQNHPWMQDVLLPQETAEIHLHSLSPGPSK
smiles,measurement,setting,value
Cn1c2ccccc2c2c3c(c4c5ccccc5n(CCC#N)c4c21)CNC3=O,"kinase still bound, per cent of control",[1],100%
same,"kinase still bound, per cent of control",CSNK1A1L (human),100%
same,"kinase still bound, per cent of control",DCLK3 (human),100%
same,"kinase still bound, per cent of control",IKBKB (human),50%
same,"kinase still bound, per cent of control",CDK14 (human),100%
same,"kinase still bound, per cent of control",[2],100%
same,"kinase still bound, per cent of control",SGK110 (human),13%
same,"kinase still bound, per cent of control",[3],46%
same,"kinase still bound, per cent of control",PIP5K1C (human),100%
same,"kinase still bound, per cent of control",AAK1 (human),0.55%
same,"kinase still bound, per cent of control",DMPK (human),100%
same,"kinase still bound, per cent of control",RPS6KA4 KD2 (human),100%
same,"kinase still bound, per cent of control",YSK4 (human),0%
same,"kinase still bound, per cent of control",[4],10%
same,"kinase still bound, per cent of control",STK4 (human),5.4%
same,"kinase still bound, per cent of control",EIF2AK2 (human),89%
same,"kinase still bound, per cent of control",MAPK10 (human),20%
same,"kinase still bound, per cent of control",CSNK1G3 (human),84%
same,"kinase still bound, per cent of control",MAP3K2 (human),0.1%
same,"kinase still bound, per cent of control",[5],71%
same,"kinase still bound, per cent of control",[6],2.6%
same,"kinase still bound, per cent of control",HIPK1 (human),32%
same,"kinase still bound, per cent of control",MKNK1 (human),86%
same,"kinase still bound, per cent of control",[7],54%
same,"kinase still bound, per cent of control",TLK2 (human),88%
same,"kinase still bound, per cent of control",MELK (human),22%
same,"kinase still bound, per cent of control",[8],43%
same,"kinase still bound, per cent of control",NEK1 (human),99%
same,"kinase still bound, per cent of control",RPS6KA6 KD1 (human),4.7%
same,"kinase still bound, per cent of control",PRKACB (human),67%
same,"kinase still bound, per cent of control",TIE1 (human),100%
same,"kinase still bound, per cent of control",TNNI3K (human),100%
same,"kinase still bound, per cent of control",CDC42BPG (human),100%
same,"kinase still bound, per cent of control",ACVRL1 (human),100%
same,"kinase still bound, per cent of control",TAOK2 (human),7.7%
same,"kinase still bound, per cent of control",PIM1 (human),32%
same,"kinase still bound, per cent of control",SYK (human),2.4%
same,"kinase still bound, per cent of control",CHEK2 (human),31%
same,"kinase still bound, per cent of control",CHUK (human),88%
same,"kinase still bound, per cent of control",MAP2K4 (human),1.2%
same,"kinase still bound, per cent of control",PRKG1 (human),67%

# From the kinase profiling compilation of Christmann-Franck et al. (2016)
